The values below come from US10807966B2, “Heterocyclic compounds as kinase inhibitors” (TRANSLATIONAL DRUG DEVELOPMENT, LLC, priority 2016, dated 2020).

In general, IC50 refers to the midpoint of a concentration-inhibition curve.

For one assay, the system named is MV411 cells. Description: Cell viability assay (CellTiter-Blue), MV411. It counts as cell-based. The conditions noted are these: for IC50: Homo sapiens, MV4-11, MV411 (ITD-FLT3+), 72 hours treatment; for FLT3-ITD+ Selectivity (K562/MV411): ratio of K562 to MV411 IC50. The method, then: (§1) Cell viability in the presence of varying concentrations of the above listed compounds at different time points was used to assess cytotoxicity and the effect of the compounds on cell proliferation.
This procedure measures the conversion of the indicator dye (resazurin) to resorufin, an indicator of cell viability. […] Fluorescence values were measured at 535/590 nm using a Beckman-Coulter DTX-880 microplate reader.
Cells were grown to 70% confluency, trypsinized, counted, and seeded in 96 well flat-bottom plates at a final concentration of 2.5×10^3-5×10^3 cells/well (Day 0). Cells were allowed to incubate in growth media for 24 hours to allow for maximum adhesion. Treatment with the test agents or standard agents began on Day 1 and continued for 72 hours. At the 72-hour time point, treatment containing media was removed. […] Experiments were repeated at least twice with the same concentrations to determine growth inhibitory activity.
(§2) For single agent and combination studies, data from each experiment was collected and expressed as % Cell Growth using the following calculation: % Cell Growth=(ftest/fvehicle)×100 Where ftest is the fluorescence of the tested sample, and fvehicle is the fluorescence of the vehicle in which the drug is dissolved. Dose response graphs and IC50 values were generated using Prism 4 software (GraphPad) using the following equation: Y=(Top−Bottom)/(1+10^((logIC50-X)[…])) Where X is the logarithm of the concentration and Y is the response. Y starts at the Bottom and goes to the Top with a sigmoid shape.
(§3) The experiments also evaluated the selectivity of the compounds for inhibiting growth of cancer cells carrying a mutation in the Flt3 gene. The MV411 cell line expresses the mutant allele of Flt3 with internal tandem duplications (ITD) of the gene. See Quentmeier et al., “FLT3 Mutations in Acute Myeloid Leukemia Cell Lines,” Leukemia 17(1), 2003, 120-124. […] See Grafone et al., “Monitoring of FLT3 Phosphorylation Status and Its Response to Drugs By Flow Cytometry in AML Blast Cells,” Hematol Oncol. 26(3), 2008, 159-166.

The target in another assay is ROCK1 (Homo sapiens (Human), UniProt Q13464). Description: ROCK1 kinase inhibition assay (peptide phosphorylation, LabChip 3000). It counts as biochemical. Conditions: 5 μM ATP, 3 nM ROCK1, 3 hours at 25° C. On the procedure: (§4) The peptide is >98% purity by Capillary Electrophoresis. The peptide is phosphorylated by the protein kinase ROCK1 or ROCK2. The ROCK1 or ROCK2 enzyme, substrate, and cofactors (ATP and Mg^2+) are combined in a well of a microtiter plate and incubated for 3 hours at 25° C. At the end of the incubation, the reaction is quenched by the addition of an EDTA-containing buffer. The substrate and product are separated and quantified electrophoretically using the microfluidic-based LABCHIP® 3000 Drug Discovery System from Caliper Life Sciences (Hopkinton, Mass.).
(§5) The components of the assay mixture are:
(§6) 10 μM Sodium Orthovanadate
(§7) 10 μM Beta-Glycerophosphate
(§8) 5 μM ATP (for ROCK1) or 7 μM ATP (for ROCK2)
(§9) 3 nM ROCK1 or 2.5 nM ROCK2 enzyme
Substrate and product peptides present in each sample are separated electrophoretically using the LABCHIP® 3000 capillary electrophoresis instrument. […] Change in the relative fluorescence intensity of the substrate and product peaks is the parameter measured reflecting enzyme activity. Capillary electrophoregramms (RDA acquisition files) are analyzed using HTS Well Analyzer software (Caliper Life Sciences, Hopkinton, Mass.). The kinase activity in each sample is determined as the product to sum ratio (PSR): P/(S+P), where P is the peak height of the product peptide and S is the peak height of the substrate peptide. For each compound, enzyme activity is measured at various concentrations (12 concentrations of compound spaced by 3× dilution intervals). […] Percent inhibition (Pinh) is determined using the following equation: Pinh=(PSR0%−PSRinh)/(PSR0%−PSR100%)*100 where PSRinh is the product sum ratio in the presence of inhibitor, PSR0% is the average product sum ratio in the absence of inhibitor, and PSR100% is the average product sum ratio in 100%-inhibition control samples. The IC50 values of inhibitors are determined by fitting the inhibition curves (Pinh versus inhibitor concentration) by 4 parameter sigmoidal dose-response model using XLfit 4 software (IBDS).

For another assay, the system named is K562 cells. Description: Cell viability assay (CellTiter-Blue), K562. The conditions noted are these: Homo sapiens; K562 (does not express ITD-FLT3), 72 hours treatment. It counts as cell-based. The method, then: as §1
Cell viability was measured by the […]-BLUE® cell viability assay from Promega (Madison, Wis.). This procedure measures the conversion of the indicator dye (resazurin) to resorufin, an indicator of cell viability. Following treatment, growth media was removed and cells were incubated with 20 μl of […]-BLUE® Reagent and growth media for 1-4 hours at 37° C. Fluorescence values were measured at 535/590 nm using a Beckman-Coulter DTX-880 microplate reader.
Cells were grown to 70% confluency, trypsinized, counted, and seeded in 96 well flat-bottom plates at a final concentration of 2.5×10^3-5×10^3 cells/well (Day 0). Cells were allowed to incubate in growth media for 24 hours to allow for maximum adhesion. Treatment with the test agents or standard agents began on Day 1 and continued for 72 hours. At the 72-hour time point, treatment containing media was removed. Viable cell numbers were quantified by the […]-BLUE® cell viability assay as described above. Experiments were repeated at least twice with the same concentrations to determine growth inhibitory activity. Results from these studies were used to calculate an IC50 value (concentration of drug that inhibits cell growth by 50 percent of control) for each compound.
as §2, §3
A general note: Resazurin is reduced to fluorescent resorufin, in cell work by metabolically active cells.

The next assay has as its target ROCK2 (Homo sapiens (Human), UniProt O75116). Description: ROCK2 kinase inhibition assay (peptide phosphorylation, LabChip 3000). Conditions: 7 μM ATP, 2.5 nM ROCK2, 3 hours at 25° C. It counts as biochemical. On the procedure:
as §4, §5, §6, §7, §8, §9
Substrate and product peptides present in each sample are separated electrophoretically using the LABCHIP® 3000 capillary electrophoresis instrument. […] Change in the relative fluorescence intensity of the substrate and product peaks is the parameter measured reflecting enzyme activity. Capillary electrophoregramms (RDA acquisition files) are analyzed using HTS Well Analyzer software (Caliper Life Sciences, Hopkinton, Mass.). The kinase activity in each sample is determined as the product to sum ratio (PSR): P/(S+P), where P is the peak height of the product peptide and S is the peak height of the substrate peptide. For each compound, enzyme activity is measured at various concentrations (12 concentrations of compound spaced by 3× dilution intervals). Negative control samples (0%-inhibition in the absence of inhibitor) and positive control samples (100%-inhibition in the presence of 20 mM EDTA) are assembled in replicates of four and are used to calculate %-inhibition values for each compound at each concentration. Percent inhibition (Pinh) is determined using the following equation: Pinh=(PSR0%−PSRinh)/(PSR0%−PSR100%)*100 where PSRinh is the product sum ratio in the presence of inhibitor, PSR0% is the average product sum ratio in the absence of inhibitor, and PSR100% is the average product sum ratio in 100%-inhibition control samples. The IC50 values of inhibitors are determined by fitting the inhibition curves (Pinh versus inhibitor concentration) by 4 parameter sigmoidal dose-response model using XLfit 4 software (IBDS).

Sequence of ROCK2 (O75116 whole entry): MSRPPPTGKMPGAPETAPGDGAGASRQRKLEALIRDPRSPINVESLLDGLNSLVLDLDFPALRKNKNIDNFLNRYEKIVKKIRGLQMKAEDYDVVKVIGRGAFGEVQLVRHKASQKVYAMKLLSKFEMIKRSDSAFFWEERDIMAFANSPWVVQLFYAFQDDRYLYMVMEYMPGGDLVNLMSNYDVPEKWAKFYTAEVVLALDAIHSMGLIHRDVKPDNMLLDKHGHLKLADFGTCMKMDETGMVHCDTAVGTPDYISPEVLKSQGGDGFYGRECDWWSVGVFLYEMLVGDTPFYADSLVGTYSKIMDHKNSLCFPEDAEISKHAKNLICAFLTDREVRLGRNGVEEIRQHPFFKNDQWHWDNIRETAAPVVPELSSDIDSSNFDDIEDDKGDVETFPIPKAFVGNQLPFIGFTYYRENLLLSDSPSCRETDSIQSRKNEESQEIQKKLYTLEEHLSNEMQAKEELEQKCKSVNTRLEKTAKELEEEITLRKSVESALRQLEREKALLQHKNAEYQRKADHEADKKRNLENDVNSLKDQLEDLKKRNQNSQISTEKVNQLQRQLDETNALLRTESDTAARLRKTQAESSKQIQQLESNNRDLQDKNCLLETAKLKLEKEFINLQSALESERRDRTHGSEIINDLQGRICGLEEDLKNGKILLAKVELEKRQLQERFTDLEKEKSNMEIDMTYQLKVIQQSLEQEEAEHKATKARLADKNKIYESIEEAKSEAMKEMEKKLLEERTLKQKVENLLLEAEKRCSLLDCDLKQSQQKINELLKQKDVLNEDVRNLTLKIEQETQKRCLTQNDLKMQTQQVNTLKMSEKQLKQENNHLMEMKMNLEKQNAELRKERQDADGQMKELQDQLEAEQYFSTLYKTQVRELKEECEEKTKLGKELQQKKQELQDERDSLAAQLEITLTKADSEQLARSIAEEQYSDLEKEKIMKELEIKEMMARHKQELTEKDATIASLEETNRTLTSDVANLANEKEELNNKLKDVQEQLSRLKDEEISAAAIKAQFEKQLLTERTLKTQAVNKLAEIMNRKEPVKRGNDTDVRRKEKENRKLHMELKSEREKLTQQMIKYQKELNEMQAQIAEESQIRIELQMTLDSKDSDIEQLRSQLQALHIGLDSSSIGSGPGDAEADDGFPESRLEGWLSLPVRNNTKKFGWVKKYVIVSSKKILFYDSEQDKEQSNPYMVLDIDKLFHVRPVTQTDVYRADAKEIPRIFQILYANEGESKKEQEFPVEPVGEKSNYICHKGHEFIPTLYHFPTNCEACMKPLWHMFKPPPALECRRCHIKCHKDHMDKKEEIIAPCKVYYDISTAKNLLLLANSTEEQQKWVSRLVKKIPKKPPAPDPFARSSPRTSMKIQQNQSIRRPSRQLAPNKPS
Sequence of ROCK1 (Q13464 whole entry): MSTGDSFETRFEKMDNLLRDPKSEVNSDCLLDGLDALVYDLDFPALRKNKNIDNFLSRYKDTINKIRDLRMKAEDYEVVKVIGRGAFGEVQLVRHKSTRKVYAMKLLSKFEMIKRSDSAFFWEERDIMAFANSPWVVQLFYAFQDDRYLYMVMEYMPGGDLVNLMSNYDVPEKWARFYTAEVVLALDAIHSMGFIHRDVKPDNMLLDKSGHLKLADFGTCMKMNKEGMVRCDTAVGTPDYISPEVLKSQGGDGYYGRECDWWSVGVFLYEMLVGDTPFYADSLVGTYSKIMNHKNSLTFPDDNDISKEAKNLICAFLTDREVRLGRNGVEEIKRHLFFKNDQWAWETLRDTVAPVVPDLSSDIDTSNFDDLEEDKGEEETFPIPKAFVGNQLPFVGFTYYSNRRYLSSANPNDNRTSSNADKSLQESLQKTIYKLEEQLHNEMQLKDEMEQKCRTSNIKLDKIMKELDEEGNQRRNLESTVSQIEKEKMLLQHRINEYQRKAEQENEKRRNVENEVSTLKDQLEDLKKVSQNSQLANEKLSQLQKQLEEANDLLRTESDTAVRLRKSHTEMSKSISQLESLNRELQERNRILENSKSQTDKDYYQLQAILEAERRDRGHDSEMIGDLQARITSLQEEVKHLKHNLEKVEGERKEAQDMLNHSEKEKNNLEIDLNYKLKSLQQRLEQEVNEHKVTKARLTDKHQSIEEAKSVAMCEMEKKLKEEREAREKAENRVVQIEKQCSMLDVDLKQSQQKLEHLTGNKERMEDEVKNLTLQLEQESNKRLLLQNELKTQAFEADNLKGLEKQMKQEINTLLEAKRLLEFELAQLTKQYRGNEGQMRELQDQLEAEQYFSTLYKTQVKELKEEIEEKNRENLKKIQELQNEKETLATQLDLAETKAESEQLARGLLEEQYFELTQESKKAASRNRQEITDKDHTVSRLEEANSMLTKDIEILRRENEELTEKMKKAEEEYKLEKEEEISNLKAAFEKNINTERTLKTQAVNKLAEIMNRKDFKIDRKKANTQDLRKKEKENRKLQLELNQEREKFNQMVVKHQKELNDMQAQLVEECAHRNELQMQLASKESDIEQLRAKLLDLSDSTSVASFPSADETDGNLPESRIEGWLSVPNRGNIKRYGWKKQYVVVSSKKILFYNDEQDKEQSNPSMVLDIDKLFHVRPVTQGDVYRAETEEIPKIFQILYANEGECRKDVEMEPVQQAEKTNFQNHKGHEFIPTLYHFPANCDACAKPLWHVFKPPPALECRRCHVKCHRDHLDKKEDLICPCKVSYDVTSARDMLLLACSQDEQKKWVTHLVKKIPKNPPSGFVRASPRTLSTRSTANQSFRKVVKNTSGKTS

As for `COc1cccc(CNC(=O)c2cc3ccc(-c4ccncc4)nc3s2)c1` [Compound 39], the IC50 was 7100 nM in the assay on MV411 cells, 65.1 nM at ROCK1, > 100000 nM in the assay on K562 cells and 17.4 nM on ROCK2. The “FLT3-ITD+ Selectivity (K562/MV411)” value in the assay on MV411 cells is >14.

With `COc1cccc(CNC(=O)c2cc3ccc(-c4cn[nH]c4)nc3s2)c1` [Compound 40], the IC50 in the assay with MV411 cells was determined as 14800 nM; at ROCK1, 164 nM; at ROCK2 it was 17 nM. Moreover, the “FLT3-ITD+ Selectivity (K562/MV411)” value in the assay with MV411 cells is given as >7.

With `CC(C)NC(=O)c1cccc(CNC(=O)c2cc3ccc(-c4cn[nH]c4)nc3s2)c1` [Compound 60], in the assay on MV411 cells, the IC50 came to 12900 nM and the “FLT3-ITD+ Selectivity (K562/MV411)” value was found to be 5. The IC50 in the assay on K562 cells worked out at 65000 nM.

Take `C[C@@H](NC(=O)c1cc(-c2ccncc2)n[nH]1)c1cccc(F)c1` [Compound 64]: at ROCK2, inhibition was half-maximal at 29.2 nM (IC50).

`COc1cccc([C@@H](C)NC(=O)c2cc3ccc(-c4cn[nH]c4)nc3s2)c1` [Compound 58]: the IC50 with MV411 cells was found to be 1600 nM; with K562 cells, 31000 nM; on ROCK2, 4.5 nM. Also, the “FLT3-ITD+ Selectivity (K562/MV411)” value in the assay with MV411 cells was determined as 19.

`O=C(N[C@H](CO)c1ccccc1)c1cc(-c2ccncc2)n[nH]1` [Compound 68] returned an IC50 against ROCK2 of 509 nM.

Take `COc1cccc([C@@H](CO)NC(=O)c2cc3ccc(-c4cn[nH]c4)nc3s2)c1` [Compound 61]: the half-maximal inhibitory concentration (IC50) in the assay with MV411 cells is 8200 nM; with K562 cells it was 54000 nM; on ROCK2 it was 7.1 nM. Further, the “FLT3-ITD+ Selectivity (K562/MV411)” value with MV411 cells is 7.

Consider `COc1cccc(CN(CCN(C)C)C(=O)c2cc3ccc(-c4cn[nH]c4)nc3s2)c1` [Compound 59], for which the values for the IC50 in the assay on MV411 cells, in the assay with K562 cells and against ROCK2 were 4500 nM, 25000 nM and 20 nM, respectively. In the assay with MV411 cells, the “FLT3-ITD+ Selectivity (K562/MV411)” value is on record as 6.

As for `O=C(N[C@H](CO)c1cccc(F)c1)c1cc(-c2ccncc2)[nH]n1` [Compound 1], the “FLT3-ITD+ Selectivity (K562/MV411)” value in the assay with MV411 cells was >1. The figures for the IC50 at ROCK1, in the assay on K562 cells and against ROCK2 were 207 nM, > 100000 nM and 27.6 nM, respectively.

As for `O=C(N[C@H](CO)c1cccc(Cl)c1)c1cc(-c2ccncc2)n[nH]1` [Compound 67], the IC50 against ROCK2 is 10.1 nM.

Consider `C[C@@H](NC(=O)c1cc(-c2ccncc2)n[nH]1)c1cccc(Cl)c1` [Compound 66], for which inhibition at ROCK2 was half-maximal at 9.8 nM (IC50).
